# In patent US20110243993A1, “Method for diagnosing and creating immunogenic tolerance in contact allergy and other epithelial immunotoxicological ailments” (priority 2010, published 2011):
# “Also recorded” adds a separate entry of the source.
# Key:
# [1] = mouse, in vivo; cited from earlier work
# human keratinocytes = settings: for blebbing response of keratinocytes: compound added to human keratinocytes, vehicle DMSO
# Excerpt: (§1) The third step is that this residue (C54) is situated in a stretch of K5 that has been shown through its interactions with desmoplakin, to be vital in maintaining the integrity of the desmosome. It is known that epithelial cells with a compromised cell-cell (and/or cell-matrix) contact undergo apoptosis (“anoikis”). […] Basal keratinocytes consists of up to 35% of insoluble keratin intermediate filaments (KIFs). As basal keratinocytes occasionally undergo apoptosis, a mechanism of waste removal of the debris of insoluble keratins has evolved. […] The keratin bodies bleb off the cells.
# [2] = system: anti-nuclear antibodies (ANA); assay: Levels of anti-nuclear antibodies (ANA) after contact with sensitizing compounds; settings: contact with sensitizing compound
# [3] = system: serum amyloid P component (SAP); assay: ELISA detection of serum amyloid protein (SAP) in sera of hapten-exposed mice; settings: mice exposed on skin, booster dose on day 10
# Procedure: Extreme sensitizers: Oxazolone (4-Ethoxymethylene-2-phenyl-2-oxazolin-5-one, 1.4 mM) CDNB (1-Chloro-2,4-dinitrobenzene, 7.4 mM)); Strong sensitizers: dBBr (48.6 mM), Glyoxal (ethane-1,2-dione, 1.27 M). DMSO was used as control. All chemicals are purchased from Sigma-Aldrich (Stockholm, Sweden).
# Apply 25 μl of the solution to the back of both ears (25 μl on each ear), once daily, on day 1, 2 and 3. Apply a booster dose on day 10 (if necessary). Sacrifice the mice on day 6 (or day 13 if a booster dose is used) by anesthetization with isoflurane (Kent Scientific Corporation, Torrington, Conn., USA) followed by inhalation of carbon dioxide (AGA, Lidingö, Sverige). To collect blood: Use a 1 ml syringe (B. Braun Medical Inc., Bethlehem, Pa., USA) with a 0.4 mm×12 mm injection needle (B. Braun Medical Inc., Bethlehem, Pa., USA). Place the tip of the needle just below the breastbone so that the syringe is linear to the abdomen. Insert the needle just below the breastbone and press it towards the heart. When inside the heart, withdraw blood. It is important to loosen the piston a little from the bottom of the syringe before inserting into the mouse. Carefully rotate the syringe during withdrawal to avoid clotting. […]
# The SAP Mouse, ELISA kit 96 tests, quantitative (Alpha Diagnostics International Inc., San Antonio, Tex., USA) is used. […]
# K5 and K14 = assay: Western blot of blebs using K5 and K14 antibodies; type: cell-based, human; settings: blebs from hapten-exposed keratinocytes
# Excerpt: Elevated levels of ANA are common features in various autoimmune diseases such as Sjögrens syndrome (SS), rheumatoid arthritis (RA) and systemic lupus erythematosus (SLE).
# as §1
# [4] = naïve mice; cited from earlier work
# [5] = Induction of oral tolerance in humans allergic to cinnamic aldehyde; type: in vivo, human; settings: once a day for 5-100 days, vs placebo (tap water)
# Excerpt: Peptides (including, but not limited to): 1: [Ace]-[…]-[Amide]; 2: [Ace]-[…]-[Amide], 3: [Ace]-[…]-[Amide]. The peptides 1 and 2 represent sequences from keratin 5 and peptide 3 is derived from keratin 14; however, it is the intention that the invention also includes peptides and/or proteins from other proteins, e.g. such as those found in the blebs from keratinocytes that have been exposed to haptens.
# Preparation of amino acid containing epitope targets as described in example 3.
# Of 20 individuals with a confirmed allergy to the hapten cinnamic aldehyde, 10 are given a test solution of 0.5 mg to 10 g amino acid containing epitope target 1 once a day for 5-100 days. The other 10 individuals are given a placebo (i.e. tap water) to drink according to the same administration scheme and time table as described above. The antibody and T cell epitope mapping profiles for each individual are then evaluated according to procedures in example 4 and 5. Each individual is also patch-tested with cinnamic aldehyde.
# cysteine 54 (C54) of K5 = molecular target: T1, cysteine 54 (C54) of K5 (Homo sapiens, UniProt P13647); assay: Identification of haptenation site with LTQ-FT-ICR mass spectrometer
# T1 construct: endogenous in cells; host or cells: living (primary) human keratinocytes and intact full-thickness human skin
# T1 sequence (P13647 1-590): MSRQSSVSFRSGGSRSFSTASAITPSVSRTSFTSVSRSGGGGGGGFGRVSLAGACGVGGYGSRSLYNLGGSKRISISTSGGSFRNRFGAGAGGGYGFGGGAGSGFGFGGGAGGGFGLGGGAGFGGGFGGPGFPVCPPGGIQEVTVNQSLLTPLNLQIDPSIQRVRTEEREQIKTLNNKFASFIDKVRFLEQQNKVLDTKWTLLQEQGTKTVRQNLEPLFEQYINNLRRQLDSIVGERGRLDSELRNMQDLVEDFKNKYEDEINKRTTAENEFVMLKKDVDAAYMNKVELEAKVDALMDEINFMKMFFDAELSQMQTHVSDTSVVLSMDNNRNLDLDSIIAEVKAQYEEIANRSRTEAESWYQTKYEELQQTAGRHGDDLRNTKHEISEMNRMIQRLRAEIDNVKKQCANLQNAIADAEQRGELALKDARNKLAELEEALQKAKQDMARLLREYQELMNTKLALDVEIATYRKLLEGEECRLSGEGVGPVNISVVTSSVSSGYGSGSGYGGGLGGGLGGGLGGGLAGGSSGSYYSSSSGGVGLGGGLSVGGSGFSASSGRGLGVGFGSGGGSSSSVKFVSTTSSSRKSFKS
# T1 sequence (P02533 1-472 partner): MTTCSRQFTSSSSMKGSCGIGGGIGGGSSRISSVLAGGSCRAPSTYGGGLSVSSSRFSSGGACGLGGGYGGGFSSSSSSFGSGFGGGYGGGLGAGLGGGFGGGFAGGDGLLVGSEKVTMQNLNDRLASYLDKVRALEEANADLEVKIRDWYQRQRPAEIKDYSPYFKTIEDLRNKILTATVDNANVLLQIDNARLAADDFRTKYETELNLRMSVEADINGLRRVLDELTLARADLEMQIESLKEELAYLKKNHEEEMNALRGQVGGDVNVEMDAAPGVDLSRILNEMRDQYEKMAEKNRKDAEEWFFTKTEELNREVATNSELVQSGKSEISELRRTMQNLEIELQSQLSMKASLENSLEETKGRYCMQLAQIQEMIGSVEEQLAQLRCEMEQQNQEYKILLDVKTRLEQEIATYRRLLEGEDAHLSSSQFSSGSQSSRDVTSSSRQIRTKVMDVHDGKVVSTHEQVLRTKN
# Excerpt: The second step is that the molecules enter the basal cells. Since the extracellular environment is oxidizing, extracellular cysteines are mostly oxidized to disulfides. However, it is in the reduced, intracellular environment that the haptens find reduced thiols to react with. Once inside the cells the compounds will react with available (i.e. not sterically hindered) reduced cysteines (thiol groups). […] Furthermore, it was identified that one of the cysteines that the haptens react with is cysteine 54 (C54) of K5. […] One of the reasons for intense reaction at C54 is presumably its high effective concentration just inside the cell membrane. It is vital in the life of an organism to fail-safe its epithelial integrity, and the bundling of the KIFs ensures a high effective local concentration of the peptide stretch containing C54, ensuring strong welding of the cell to its surroundings. Amino acids nearby in the primary sequence are consequently also located within physical reach of an incoming compound in similarly high effective concentrations. Looking at blebbing brought on by amine- and arginine-reactive compounds from this angle, the residues K71 and R72 are the closest candidates in the primary sequence.
# keratins = assay: Cross-linking of bleb proteins by bidentate haptens; parameters: species or system human; settings: bidentate hapten
# Excerpt: In SDS-PAGE experiments it was shown that thiol-, amine-, and arginine-reactive sensitizers give rise to blebs that contain the same protein bands. In this step, it is thus shown that by adding haptens to keratinocytes, the haptens induce expulsion of a high amount of cryptic epitopes that are normally concealed from the immune system through their intracellular location and/or neoepitopes consisting of haptenated/differently processed peptides and proteins. It was also shown, using a LTQ-FT-ICR mass spectrometer coupled to a nanospray source, that the blebs contain other proteins, for example peptidyl-prolyl cis-trans isomerase A, stathmin, calmodulin, cofilin-1, transgelin-2, 14-3-3 protein sigma, annexin A2, tubulin, keratin 6A 6B 6C, transitional endoplasmic reticulum ATPase, endoplasmin, and importin-5. […] It was also shown that the sensitizing compounds also modify other proteins and that these proteins are released in blebs, as visualized by fluorescent bands on SDS-gels.
molecule,measurement,setting,value
C=O [Formaldehyde],sensitizer class by EC3-value,[1],Strong (key: Extreme: For extreme sensitizers (EC3<0.1%); Strong: For strong sensitizers (0.1%<EC3<1%); Moderate: For moderate sensitizers (1%<EC3<10%); Weak: For weak sensitizers (EC3>10%))
"O=[N+]([O-])c1ccc(Cl)c([N+](=O)[O-])c1 [CDNB, 1-Chloro-2,4-dinitrobenzene]",blebbing response of keratinocytes,human keratinocytes,provoke a blebbing response
same,levels of anti-nuclear antibodies (ANA),[2],increased levels
same,sensitizer class by EC3-value,[1],Extreme (key: Extreme: For extreme sensitizers (EC3<0.1%); Strong: For strong sensitizers (0.1%<EC3<1%); Moderate: For moderate sensitizers (1%<EC3<10%); Weak: For weak sensitizers (EC3>10%))
same,levels of SAP protein in sera,[3],increased levels
"CCOC=C1N=C(c2ccccc2)OC1=O [Oxazolone, 4-Ethoxymethylene-2-phenyl-2-oxazolin-5-one]",blebbing response of keratinocytes,human keratinocytes,provoke a blebbing response
same,keratins (K5 and K14) in blebs,K5 and K14,contain K5 and K14; also recorded: also contain keratins
same,levels of anti-nuclear antibodies (ANA),[2],increased levels
same,protection against the hapten after tolerance induction,[4],some protection
[Ace]-VSLGGACGAGGYG-[Amide] [amino acid containing epitope target 1],antibodies and T cells against the amino acid containing epitope target,[5],less antibodies and T cells
same,reaction to cinnamic aldehyde in the patch test,[5],less reaction
"CCCCCCCCCCCCOS(=O)(=O)[O-].[Na+] [SDS, Sodium dodecyl sulphate]",cellular response other than blebbing,human keratinocytes; human keratinocytes exposed to compound,cells seem to “dissolve”
O=CCc1ccccc1 [Phenylacetaldehyde],sensitizer class by EC3-value,[1],Moderate (key: Extreme: For extreme sensitizers (EC3<0.1%); Strong: For strong sensitizers (0.1%<EC3<1%); Moderate: For moderate sensitizers (1%<EC3<10%); Weak: For weak sensitizers (EC3>10%))
Cc1c(C)n2c(CBr)c(C)c(=O)n2c1=O [mBBr],covalent modification of C54 of K5,"cysteine 54 (C54) of K5; intact, full-thickness human skin",modifies C54 of K5
same,covalent modification of C54 of K5,cysteine 54 (C54) of K5; living human keratinocytes,modify C54 of K5; also recorded: modifies C54 of K5
CCCCCCC(C=O)=Cc1ccccc1 [α-Hexyl-cinnamicaldehyde],sensitizer class by EC3-value,[1],Weak (key: Extreme: For extreme sensitizers (EC3<0.1%); Strong: For strong sensitizers (0.1%<EC3<1%); Moderate: For moderate sensitizers (1%<EC3<10%); Weak: For weak sensitizers (EC3>10%))
"O=c1[nH]sc2ccccc12 [1,2-Benzisothiazolin-3-one]",sensitizer class by EC3-value,[1],Moderate (key: Extreme: For extreme sensitizers (EC3<0.1%); Strong: For strong sensitizers (0.1%<EC3<1%); Moderate: For moderate sensitizers (1%<EC3<10%); Weak: For weak sensitizers (EC3>10%))
"Cc1c(CBr)n2c(CBr)c(C)c(=O)n2c1=O [dBBr, dibromobimane]",cross links between proteins,keratins,cause cross links between for example keratins
same,levels of anti-nuclear antibodies (ANA),[2],increased levels
"O=CC=O [Glyoxal, ethane-1,2-dione]",blebbing response of keratinocytes,human keratinocytes,provoke a blebbing response
same,keratins (K5 and K14) in blebs,K5 and K14,contain K5 and K14; also recorded: also contain keratins
same,levels of anti-nuclear antibodies (ANA),[2],increased levels
same,sensitizer class by EC3-value,[1],Strong (key: Extreme: For extreme sensitizers (EC3<0.1%); Strong: For strong sensitizers (0.1%<EC3<1%); Moderate: For moderate sensitizers (1%<EC3<10%); Weak: For weak sensitizers (EC3>10%))
same,levels of SAP protein in sera,[3],increased levels
[Ni] [nickel],protection against the hapten after tolerance induction,[4],some protection
